Reference: ChEMBL document CHEMBL5154921, “Discovery and Characterization of the First Nonpeptide Antagonists for the Relaxin-3/RXFP3 System” (J Med Chem, 2022)

Target: T1, Relaxin-3 receptor 1 (Homo sapiens, UniProt Q9NSD7)
T1 sequence (Q9NSD7 whole entry): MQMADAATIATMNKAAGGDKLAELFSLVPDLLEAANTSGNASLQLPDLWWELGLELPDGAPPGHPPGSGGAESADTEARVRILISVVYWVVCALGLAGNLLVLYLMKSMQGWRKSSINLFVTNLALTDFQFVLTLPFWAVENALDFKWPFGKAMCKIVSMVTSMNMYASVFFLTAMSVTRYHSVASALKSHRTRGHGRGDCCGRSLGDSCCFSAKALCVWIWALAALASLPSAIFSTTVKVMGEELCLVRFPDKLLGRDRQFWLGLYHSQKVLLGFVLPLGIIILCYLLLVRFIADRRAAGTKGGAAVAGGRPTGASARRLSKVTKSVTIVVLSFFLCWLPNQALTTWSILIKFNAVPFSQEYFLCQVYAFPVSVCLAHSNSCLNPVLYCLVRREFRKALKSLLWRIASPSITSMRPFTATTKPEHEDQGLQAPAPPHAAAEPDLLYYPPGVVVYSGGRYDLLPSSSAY
Test: Antagonist activity at human RXFP3 expressed in CHO-K1 cells assessed as forskolin-induced cAMP accumulation measured after 30 mins in presence of relaxin-3 by TR-FRET assay
Assay type: functional, cell-based

## Cc1ccc(-c2noc(-c3ccc(NC(=O)C4CC(=O)N(Cc5cccc(F)c5)C4)cc3)n2)cc1 (configuration not stated)
  IC50: > 10 µM

## Cc1ccc(-c2noc(-c3ccc(NC(=O)C4CC(=O)N(CCc5ccccc5)C4)cc3)n2)cc1 (configuration not stated)
  IC50: > 10 µM
